{"source": "paper PMC8720286", "about": "(Chemical biology & drug design, 2020)", "key": {"Mtb H37Rv": {"test_system": "Mtb H37Rv", "assay": "MIC determination by microplate AlamarBlue assay", "settings": "for fold more potent against M.tb than counterparts 3 - 5 with no carbon spacer: 9 vs 3, 10 vs 4, 11 vs 5; for anti-TB activity in words: susceptible strain of Mtb, SAR discussion; for Mtb MIC H37Rv/DS: Table 2, H37Rv drug-sensitive"}, "Mtb V4207/DS": {"test_system": "Mtb V4207/DS", "assay": "microbe, parasite or virus in culture", "type": "cell-based", "settings": "Mycobacterium tuberculosis, read-out: Mtb MIC V4207/DS"}, "Mtb KZN494/MDR": {"test_system": "Mtb KZN494/MDR", "assay": "microbe, parasite or virus in culture", "type": "cell-based, Mycobacterium tuberculosis", "settings": "relative to H37Rv MIC"}, "in vitro [1]": {"assay": "in vitro", "type": "cell-based", "settings": "African green monkey"}, "Vero cells": {"test_system": "Vero cells", "assay": "in vitro", "type": "cell-based", "settings": "IC50 (Vero)/MIC"}, "clinical isolates of Mtb": {"test_system": "clinical isolates of Mtb", "type": "cell-based, Mycobacterium tuberculosis", "settings": "for MIC range against MDR and XDR strains of TB: range over both compounds and strains; for fold drop in activity against the tested clinical isolates of Mtb: relative to H37Rv MIC"}, "in vitro [2]": {"assay": "in vitro", "type": "in vitro ADME", "settings": "human, plasma"}, "in vitro [3]": {"assay": "in vitro", "type": "in vitro ADME", "settings": "mouse, plasma"}, "CYP1A2": {"target": "T1, CYP1A2 (Homo sapiens, UniProt P05177)", "T1 sequence (P05177 1-516)": "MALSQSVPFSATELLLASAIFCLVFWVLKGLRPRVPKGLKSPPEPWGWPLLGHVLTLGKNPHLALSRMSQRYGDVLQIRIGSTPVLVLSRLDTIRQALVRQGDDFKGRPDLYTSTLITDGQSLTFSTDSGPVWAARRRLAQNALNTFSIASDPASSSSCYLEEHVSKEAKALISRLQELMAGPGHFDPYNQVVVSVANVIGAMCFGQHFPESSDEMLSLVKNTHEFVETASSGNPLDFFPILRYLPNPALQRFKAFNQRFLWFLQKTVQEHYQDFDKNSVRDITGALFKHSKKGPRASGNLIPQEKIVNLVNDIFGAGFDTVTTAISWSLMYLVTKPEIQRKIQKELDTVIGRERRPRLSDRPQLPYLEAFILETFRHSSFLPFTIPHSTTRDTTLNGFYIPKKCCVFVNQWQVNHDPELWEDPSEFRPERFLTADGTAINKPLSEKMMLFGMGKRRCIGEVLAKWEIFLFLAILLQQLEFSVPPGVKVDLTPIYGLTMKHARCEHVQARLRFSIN", "assay": "CYP inhibition, CYP1A2", "type": "in vitro ADME"}, "CYP2C9": {"target": "CYP2C9 (Homo sapiens, UniProt P11712)", "sequence (P11712 whole entry)": "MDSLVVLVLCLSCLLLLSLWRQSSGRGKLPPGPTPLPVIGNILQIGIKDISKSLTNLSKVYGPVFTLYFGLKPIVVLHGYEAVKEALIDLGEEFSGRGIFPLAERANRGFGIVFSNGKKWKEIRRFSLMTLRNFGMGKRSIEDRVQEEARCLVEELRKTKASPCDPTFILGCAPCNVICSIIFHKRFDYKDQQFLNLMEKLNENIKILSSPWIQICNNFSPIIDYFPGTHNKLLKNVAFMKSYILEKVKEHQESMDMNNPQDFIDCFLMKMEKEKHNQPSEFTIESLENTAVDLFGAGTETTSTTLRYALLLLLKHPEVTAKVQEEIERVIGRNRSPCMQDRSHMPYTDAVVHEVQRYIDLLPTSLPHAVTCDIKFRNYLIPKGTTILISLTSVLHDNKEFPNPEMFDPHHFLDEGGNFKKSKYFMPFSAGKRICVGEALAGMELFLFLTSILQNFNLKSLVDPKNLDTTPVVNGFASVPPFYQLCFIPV", "assay": "CYP inhibition, CYP2C9", "type": "in vitro ADME"}, "CYP2C19": {"target": "CYP2C19 (Homo sapiens, UniProt P33261)", "sequence (P33261 whole entry)": "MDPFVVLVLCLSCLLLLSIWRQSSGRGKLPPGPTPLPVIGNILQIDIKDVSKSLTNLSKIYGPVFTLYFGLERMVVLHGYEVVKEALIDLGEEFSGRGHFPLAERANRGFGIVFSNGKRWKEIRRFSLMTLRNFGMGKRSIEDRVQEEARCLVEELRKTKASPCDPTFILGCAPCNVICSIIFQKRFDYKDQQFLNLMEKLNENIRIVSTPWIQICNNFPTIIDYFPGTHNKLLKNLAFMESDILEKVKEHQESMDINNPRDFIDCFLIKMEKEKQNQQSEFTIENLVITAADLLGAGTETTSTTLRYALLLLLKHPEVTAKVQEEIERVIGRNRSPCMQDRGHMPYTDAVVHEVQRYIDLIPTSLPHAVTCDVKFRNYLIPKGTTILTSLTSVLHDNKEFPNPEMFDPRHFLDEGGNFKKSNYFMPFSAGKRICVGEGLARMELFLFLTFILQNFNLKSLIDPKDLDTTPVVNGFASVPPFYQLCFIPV", "assay": "CYP inhibition, CYP2C19", "type": "in vitro ADME"}, "CYP2D6": {"target": "CYP2D6 (Homo sapiens, UniProt P10635)", "sequence (P10635 whole entry)": "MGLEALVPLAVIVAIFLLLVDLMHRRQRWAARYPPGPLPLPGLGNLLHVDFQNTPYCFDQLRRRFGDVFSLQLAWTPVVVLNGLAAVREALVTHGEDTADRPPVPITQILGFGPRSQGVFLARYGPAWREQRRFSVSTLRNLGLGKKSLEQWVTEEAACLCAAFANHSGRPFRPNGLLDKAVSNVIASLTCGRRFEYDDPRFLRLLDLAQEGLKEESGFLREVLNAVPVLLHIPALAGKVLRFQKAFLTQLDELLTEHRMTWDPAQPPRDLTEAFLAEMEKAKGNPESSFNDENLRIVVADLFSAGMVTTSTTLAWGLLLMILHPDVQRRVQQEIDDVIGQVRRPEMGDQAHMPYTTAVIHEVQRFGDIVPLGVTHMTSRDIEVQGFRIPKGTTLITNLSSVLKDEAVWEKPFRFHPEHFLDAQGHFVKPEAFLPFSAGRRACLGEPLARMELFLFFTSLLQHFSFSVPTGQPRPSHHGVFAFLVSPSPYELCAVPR", "assay": "CYP inhibition, CYP2D6", "type": "in vitro ADME"}, "CYP3A4": {"target": "CYP3A4 (Homo sapiens, UniProt P08684)", "sequence (P08684 whole entry)": "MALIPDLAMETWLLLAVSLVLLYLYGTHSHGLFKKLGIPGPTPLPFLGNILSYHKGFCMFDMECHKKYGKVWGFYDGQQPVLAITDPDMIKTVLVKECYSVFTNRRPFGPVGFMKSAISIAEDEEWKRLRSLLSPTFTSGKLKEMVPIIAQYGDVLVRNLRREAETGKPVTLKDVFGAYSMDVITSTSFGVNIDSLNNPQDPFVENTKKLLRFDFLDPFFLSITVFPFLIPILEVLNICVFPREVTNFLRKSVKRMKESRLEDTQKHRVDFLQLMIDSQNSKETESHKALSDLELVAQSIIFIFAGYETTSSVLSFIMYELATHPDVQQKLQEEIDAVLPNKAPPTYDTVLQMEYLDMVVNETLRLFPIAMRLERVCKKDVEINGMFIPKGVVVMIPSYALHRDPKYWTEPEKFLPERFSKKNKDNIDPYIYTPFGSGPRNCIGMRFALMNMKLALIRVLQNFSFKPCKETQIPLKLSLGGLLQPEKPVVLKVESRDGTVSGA", "assay": "CYP inhibition, CYP3A4", "type": "in vitro ADME", "settings": "probe midazolam"}, "hERG": {"target": "hERG (Homo sapiens, UniProt Q12809)", "sequence (Q12809 whole entry)": "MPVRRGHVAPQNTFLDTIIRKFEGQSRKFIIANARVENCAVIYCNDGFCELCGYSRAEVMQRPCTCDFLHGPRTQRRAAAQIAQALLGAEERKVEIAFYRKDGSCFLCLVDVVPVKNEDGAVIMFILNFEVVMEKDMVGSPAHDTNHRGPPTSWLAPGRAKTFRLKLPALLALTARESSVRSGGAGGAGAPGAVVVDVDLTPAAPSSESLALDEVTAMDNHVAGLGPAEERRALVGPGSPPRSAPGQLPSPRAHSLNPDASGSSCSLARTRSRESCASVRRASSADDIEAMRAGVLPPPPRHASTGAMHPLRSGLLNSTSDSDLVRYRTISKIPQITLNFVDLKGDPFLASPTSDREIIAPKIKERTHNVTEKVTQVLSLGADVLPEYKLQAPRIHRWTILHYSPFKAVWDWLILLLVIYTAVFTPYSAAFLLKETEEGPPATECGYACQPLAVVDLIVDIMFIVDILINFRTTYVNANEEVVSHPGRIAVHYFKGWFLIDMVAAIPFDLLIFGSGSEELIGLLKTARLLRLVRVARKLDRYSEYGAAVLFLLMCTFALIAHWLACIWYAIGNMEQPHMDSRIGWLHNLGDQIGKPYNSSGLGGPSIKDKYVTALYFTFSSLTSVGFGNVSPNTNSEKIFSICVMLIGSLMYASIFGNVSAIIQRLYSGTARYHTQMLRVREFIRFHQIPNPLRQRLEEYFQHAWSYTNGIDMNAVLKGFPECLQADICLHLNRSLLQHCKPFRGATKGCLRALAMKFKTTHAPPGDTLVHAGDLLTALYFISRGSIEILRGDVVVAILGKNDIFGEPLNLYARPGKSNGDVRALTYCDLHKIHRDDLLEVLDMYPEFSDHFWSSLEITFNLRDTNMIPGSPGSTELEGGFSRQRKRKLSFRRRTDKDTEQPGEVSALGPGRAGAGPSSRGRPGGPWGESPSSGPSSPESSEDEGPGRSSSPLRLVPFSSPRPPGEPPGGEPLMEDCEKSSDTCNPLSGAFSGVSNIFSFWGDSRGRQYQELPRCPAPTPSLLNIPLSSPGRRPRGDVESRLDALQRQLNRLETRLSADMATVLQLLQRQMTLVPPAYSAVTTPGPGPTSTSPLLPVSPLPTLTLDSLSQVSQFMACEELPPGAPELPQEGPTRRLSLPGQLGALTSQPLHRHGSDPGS", "assay": "hERG channel inhibition, manual patch-clamp", "type": "cell-based", "settings": "human"}, "[4]": {"target": "human Ether-à-go-go related gene (hERG) channel (Homo sapiens, UniProt Q12809)", "sequence (Q12809 whole entry)": "as above", "assay": "hERG channel inhibition, manual patch-clamp", "type": "cell-based"}, "in vitro [5]": {"assay": "in vitro", "type": "in vitro ADME"}, "in vitro [6]": {"assay": "in vitro", "type": "in vitro ADME", "settings": "human, microsomes, Liver microsomes, % remaining after 1 hr (human)"}, "in vitro [7]": {"assay": "in vitro", "type": "in vitro ADME", "settings": "mouse, microsomes, Liver microsomes, % remaining after 1 hr (mouse)"}}}
{"smiles": "Cc1ccc2nc(C)c(C(=O)NCC3CCCCC3)n2c1", "note": "[Compound 9, N-(cyclohexylmethyl)-2,6-dimethylimidazo[1,2-a]pyridine-3-carboxamide]", "values": [{"measurement": "fold more potent against M.tb than counterparts 3 - 5 with no carbon spacer", "setting": "Mtb H37Rv; ratio of MIC", "result": 267, "unit": "fold"}]}
{"smiles": "Cc1ccc2nc(C)c(C(=O)NCC3CCCCCC3)n2c1", "note": "[Compound 10, N-(cycloheptylmethyl)-2,6-dimethylimidazo[1,2-a]pyridine-3-carboxamide]", "values": [{"measurement": "fold more potent against M.tb than counterparts 3 - 5 with no carbon spacer", "setting": "Mtb H37Rv; ratio of MIC", "result": 133, "unit": "fold"}]}
{"smiles": "Cc1ccc2nc(C)c(C(=O)NCC3CCCCCCC3)n2c1", "note": "[Compound 11, N-(cyclooctylmethyl)-2,6-dimethylimidazo[1,2-a]pyridine-3-carboxamide]", "values": [{"measurement": "fold more potent against M.tb than counterparts 3 - 5 with no carbon spacer", "setting": "Mtb H37Rv; ratio of MIC", "result": 133, "unit": "fold"}]}
{"smiles": "Cc1ccc2nc(C)c(C(=O)NCC34CC5CC(CC(C5)C3)C4)n2c1", "note": "[Compound 12, N-(adamantan-1-ylmethyl)-2,6-dimethylimidazo[1,2-a]pyridine-3-carboxamide]", "values": [{"measurement": "anti-TB activity in words", "setting": "Mtb H37Rv", "result": "poor anti-TB activity"}]}
{"smiles": "Cc1ccc2nc(C)c(C(=O)NCCCC3CCCCC3)n2c1", "note": "[Compound 15, N-(3-cyclohexylpropyl)-2,6-dimethylimidazo[1,2-a]pyridine-3-carboxamide]", "values": [{"measurement": "MIC", "setting": "Mtb V4207/DS", "result": 0.1, "unit": "µM"}, {"measurement": "fold increase in activity against MDR Mtb strain KZN494", "setting": "Mtb KZN494/MDR", "result": 2, "unit": "fold"}, {"measurement": "IC50 at 72 h", "setting": "in vitro [1]", "result": 102, "unit": "µM"}, {"measurement": "SI, Selectivity index = IC50 (Vero)/MIC", "setting": "Vero cells", "result": 1024}, {"measurement": "MIC range against MDR and XDR strains of TB", "setting": "clinical isolates of Mtb", "result": "0.05 to 1.5", "unit": "µM"}, {"measurement": "fold drop in activity against the tested clinical isolates of Mtb", "setting": "clinical isolates of Mtb", "result": "up to 2 fold"}, {"measurement": "fold more active than isoniazid against H37Rv", "setting": "Mtb H37Rv; ratio of MIC", "result": "1.5 - 3 fold"}, {"measurement": "Mtb MIC H37Rv/DS", "setting": "Mtb H37Rv", "result": 0.10, "unit": "µM"}, {"measurement": "fold more active than compounds 9 and 13", "setting": "Mtb H37Rv; ratio of MIC", "result": 4, "unit": "fold"}]}
{"smiles": "Cc1nc2ccc(Cl)cn2c1C(=O)NCCCC1CCCCC1", "note": "[Compound 16, 6-chloro-N-(3-cyclohexylpropyl)-2-methylimidazo[1,2-a]pyridine-3-carboxamide]", "values": [{"measurement": "MIC", "setting": "Mtb V4207/DS", "result": 0.37, "unit": "µM"}, {"measurement": "fold increase in activity against MDR Mtb strain KZN494", "setting": "Mtb KZN494/MDR", "result": 2, "unit": "fold"}, {"measurement": "IC50 at 72 h", "setting": "in vitro [1]", "result": "≥ 192", "unit": "µM"}, {"measurement": "SI, Selectivity index = IC50 (Vero)/MIC", "setting": "Vero cells", "result": "≥1024"}, {"measurement": "fraction unbound", "setting": "in vitro [2]", "result": 0.0011}, {"measurement": "fraction unbound", "setting": "in vitro [3]", "result": 0.0036}, {"measurement": "inhibition at 10 µM", "setting": "CYP1A2", "result": 26.3, "unit": "%"}, {"measurement": "inhibition at 10 µM", "setting": "CYP2C9", "result": 32.2, "unit": "%"}, {"measurement": "inhibition at 10 µM", "setting": "CYP2C19", "result": 45.2, "unit": "%"}, {"measurement": "inhibition at 10 µM", "setting": "CYP2D6", "result": 16.4, "unit": "%"}, {"measurement": "inhibition at 10 µM", "setting": "CYP3A4", "result": 52.2, "unit": "%"}, {"measurement": "inhibition at 10 µM", "setting": "hERG", "result": 29.1, "unit": "%"}, {"measurement": "IC50", "setting": "[4]", "result": "> 10", "unit": "µM"}, {"measurement": "% degraded after 2 hours incubation with human hepatocyte", "setting": "in vitro [5]; 2 h, 1 μM", "result": "over 95%"}, {"measurement": "remaining at 2 h, 1 μM", "setting": "in vitro [5]; human, hepatocytes", "result": 0.19, "unit": "%"}, {"measurement": "remaining at 1 h, 1 μM", "setting": "in vitro [6]", "result": "~1.5", "unit": "%"}, {"measurement": "remaining at 1 h, 1 μM", "setting": "in vitro [7]", "result": "~0.15", "unit": "%"}, {"measurement": "MIC range against MDR and XDR strains of TB", "setting": "clinical isolates of Mtb", "result": "0.05 to 1.5", "unit": "µM"}, {"measurement": "fold drop in activity against the tested clinical isolates of Mtb", "setting": "clinical isolates of Mtb", "result": "up to 8 fold"}, {"measurement": "fold more active than isoniazid against H37Rv", "setting": "Mtb H37Rv; ratio of MIC", "result": "1.5 - 3 fold"}, {"measurement": "Mtb MIC H37Rv/DS", "setting": "Mtb H37Rv", "result": 0.19, "unit": "µM"}, {"measurement": "fold drop in activity relative to compound 15", "setting": "Mtb H37Rv; ratio of MIC", "result": "approximately 2 fold"}]}
{"smiles": "O=C(NCCCC1CCCCC1)c1c(-c2ccccc2)nc2cc(Cl)ccn12", "note": "[Compound 17, 7-chloro-N-(3-cyclohexylpropyl)-2-phenylimidazo[1,2-a]pyridine-3-carboxamide]", "values": [{"measurement": "anti-TB activity in words", "setting": "Mtb H37Rv", "result": "complete loss in activity"}]}
{"smiles": "O=C(NC1CCCCCCC1)c1cn2ccc(Cl)cc2n1", "note": "[Compound 18, 7-chloro-N-cyclooctylimidazo[1,2-a]pyridine-2-carboxamide]", "values": [{"measurement": "anti-TB activity in words", "setting": "Mtb H37Rv", "result": "less active"}]}
{"smiles": "O=C(NCCCC1CCCCC1)c1cn2ccc(Cl)cc2n1", "note": "[Compound 19, 7-chloro-N-(3-cyclohexylpropyl)imidazo[1,2-a]pyridine-2-carboxamide]", "values": [{"measurement": "anti-TB activity in words", "setting": "Mtb H37Rv", "result": "less active"}]}
